Assay results taken from paper PMC8232621, “Antimicrobial Activity of a Library of Thioxanthones and Their Potential as Efflux Pump Inhibitors” (Pharmaceuticals, 2021).

Assays:
E. faecalis B3/101 = experiment: Synergy with vancomycin (antibiotic MIC in presence of compound); type: cell-based, Enterococcus faecalis
Description: The referred library of thioxanthones was initially tested for their antimicrobial activity against six bacterial strains: the Gram-negative Escherichia coli ATCC 25922, Pseudomonas aeruginosa ATCC 27853 and Salmonella enterica serovar Typhimurium SL1344 (SE03), with the acrA gene deleted, and the Gram-positive Staphylococcus aureus ATCC 29213, Enterococcus faecalis ATCC 29212 and the methicillin and ofloxacin-resistant clinical isolate S. aureus 272123. For the synergy assay, two clinically relevant isolates were used: the extended-spectrum β-lactamase (ESBL)-producing E. coli SA/2 [23] and the vancomycin-resistant E. faecalis (VRE) B3/101 [23]. The antibiotics used were cefotaxime (CTX) and vancomycin (VAN), respectively.
The combined effect of the compounds and clinically relevant antimicrobial drugs was evaluated by determining the antibiotic’s MIC in the presence of each compound. […] The antibiotic tested was serially diluted, whereas the concentration of each compound was kept fixed. In the case of compound 12, the concentration used was 8 µg/mL. For all other compounds, the concentration used was 64 µg/mL. Antibiotic MICs were determined as described above.

Caco-2 cells = experiment: Cytotoxicity in Caco-2 cells, sulforhodamine B (SRB) binding assay; type: cell-based, human; conditions: 24 h after exposure
Protocol: Caco-2 cells were routinely cultured in 75 cm^2 flasks using DMEM with 4.5 g/L glucose supplemented with 10% FBS, 1% NEAA and 1% antibiotic. Cells were maintained at 37 °C, in a 5% CO2 and 95% air atmosphere, and the cell culture medium was changed every 2−3 days. Cultures were passaged weekly by trypsinization (0.25% trypsin/1 mM EDTA). In all experiments, the cells were seeded at a density of 60,000 cells/cm^2 and used three days after seeding, when confluence was reached. The cells used in all experiments were taken between the 55th and 64th passages.
The compounds’ (0−20 μM) cytotoxicity was evaluated by the neutral red (NR) uptake and Sulforhodamine B (SRB) binding assays, 24 h after exposure. Caco-2 cells were seeded onto 96-well plates at a density of 60,000 cells/cm^2 and exposed, after reaching confluence (three days after seeding), to the compounds (0–20 μM), in a fresh cell culture medium. Triton™ X-100 (0.1%) was used as a positive control.
The SRB binding assay is based on the pH-dependent binding of SRB to basic amino acids of cellular proteins under mild acidic conditions. […] The bounded SRB was then extracted with a Tris base solution (10 mM, pH 10.5) and the absorbance was measured, at 540 nm, in a multi-well plate reader (PowerWaveX BioTek Instruments, VT, USA). […]

CCCOc1ccc(N2CCNC(=O)C2)c2c(=O)c3ccccc3sc12 [Compound 9, 4-(9-Oxo-4-propoxy-9H-thioxanthen-1-yl)piperazin-2-one]
decrease of the MIC of VAN (E. faecalis B3/101): 16 fold

CCCOc1ccc2nc(NCc3ccccc3Cl)nc3c2c1Sc1ccccc1-3 [Compound 17]
SRB binding vs control cells (Caco-2 cells; 10 µM): no significant differences
SRB binding (relative to control cells) (Caco-2 cells; 20 µM): 105.8%
